Test results published in patent US7041844B2, “Irreversible non-steroidal antagonist compound and its use in the treatment of prostate cancer” (The University Of Tennessee Research Corporation, priority 1996, dated 2006).

Key:
rat prostate AR = biological target: T1, rat prostate AR (Rattus norvegicus, UniProt P15207); assay: Saturation binding of 3H-MIB in the AR preparation (Scatchard analysis)
T1 sequence (P15207 1-902): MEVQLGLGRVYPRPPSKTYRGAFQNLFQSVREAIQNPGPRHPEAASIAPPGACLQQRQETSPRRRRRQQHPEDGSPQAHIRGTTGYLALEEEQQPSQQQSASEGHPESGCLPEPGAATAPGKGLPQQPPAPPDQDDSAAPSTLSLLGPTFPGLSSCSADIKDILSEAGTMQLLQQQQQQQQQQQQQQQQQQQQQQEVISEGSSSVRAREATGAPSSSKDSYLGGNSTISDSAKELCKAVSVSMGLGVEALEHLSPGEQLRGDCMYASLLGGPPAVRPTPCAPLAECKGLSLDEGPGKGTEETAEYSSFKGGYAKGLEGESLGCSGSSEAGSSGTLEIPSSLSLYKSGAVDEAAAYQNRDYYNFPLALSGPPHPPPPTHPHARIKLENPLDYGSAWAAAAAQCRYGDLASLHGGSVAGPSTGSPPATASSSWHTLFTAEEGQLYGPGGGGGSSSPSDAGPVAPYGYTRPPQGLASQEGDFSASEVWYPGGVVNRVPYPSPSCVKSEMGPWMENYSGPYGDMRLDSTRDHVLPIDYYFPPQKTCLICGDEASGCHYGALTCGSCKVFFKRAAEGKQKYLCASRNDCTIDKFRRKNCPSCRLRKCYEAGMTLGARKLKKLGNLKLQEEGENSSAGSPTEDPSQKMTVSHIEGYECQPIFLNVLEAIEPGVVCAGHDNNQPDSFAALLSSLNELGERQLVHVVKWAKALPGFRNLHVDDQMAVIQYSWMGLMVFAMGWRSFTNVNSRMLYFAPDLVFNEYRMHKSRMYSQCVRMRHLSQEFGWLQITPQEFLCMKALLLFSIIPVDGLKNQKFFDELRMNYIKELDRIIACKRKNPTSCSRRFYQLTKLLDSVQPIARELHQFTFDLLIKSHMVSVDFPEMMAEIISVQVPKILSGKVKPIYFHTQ

rat ventral prostate AR = biological target: T2, rat ventral prostate AR (Rattus norvegicus, UniProt P15207); assay: Competitive displacement of 3H-MIB from AR binding sites; settings: comparison of Ki values
T2 construct: from tissue; host or cells: ventral prostate cytosol of castrated male Sprague-Dawley rats
T2 sequence (P15207 1-902): T1 sequence (P15207 1-902)
Experimental: Receptor binding studies for the compounds shown in Table 3 were conducted as follows.
1. AR were isolated from rat ventral prostate tissue by differential centrifugation.
2. Samples of the following composition listed in Table 4 were incubated at 4° C. for 18 hours:
Percent Specific Binding=(B/B0)×100
Data were computer fitted to the equation: […]
Equilibrium dissociation constant of each isomer (Ki) was determined using the equation.
AR isolation was performed as follows.

Row | SMILES | Kd (rat prostate AR) | AR binding affinity (result in words) (rat ventral prostate AR)
1 | C[C@@H]1CC2=CC(=O)CC[C@@H]2[C@H]2CC[C@@]3(C)[C@@H](CC[C@]3(C)O)[C@@H]21 [MIB, Mibolerone] | 0.182 nM | 
2 | O=[N+]([O-])SN=C=S [S-NT-NCS, S-nitro-thio-isothiocyanate] |  | close to that of S-Casodex
3 | O=C(CCl)NS[N+](=O)[O-] [S-NT-CAA, S-nitro-thio chloroacetamide] |  | close to that of S-Casodex
